Experimental data taken from PubChem BioAssay AID248 (DTP/NCI, 2004).
“And” between values parts separate entries of the source, which are not always exact repeats. Equal entries are not always repeated. Toxic doses and inconclusive results are not listed. Cut-off read from the data, not from the text of the source: active = T/C of 150% or more; inactive = T/C below 125%.

System: L1210 leukemia ip in BDF1 mice, survival T/C
Assay: NCI In Vivo Anticancer Drug Screen. Data for tumor model L1210 Leukemia (intraperitoneal) in B6D2F1 (BDF1) mice
Conditions: higher = longer survival
Summary of the method: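 Survival endpoint. Drug-treated group vs vehicle group, expressed as T divided by C. Tumor passaged by transplantation.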

[1] = endpoint: mean survival time, dose: 100.0 mg/kg/injection, schedule: Q01DX001 (ip), vehicle: saline
[2] = endpoint: mean survival time, dose: 200.0 mg/kg/injection, schedule: Q01DX001 (ip), vehicle: saline
[3] = endpoint: mean survival time, dose: 100.0 mg/kg/injection, schedule: Q04DX003 (ip), vehicle: saline with Tween-80
[4] = endpoint: mean survival time, dose: 200.0 mg/kg/injection, schedule: Q04DX003 (ip), vehicle: saline with Tween-80
[5] = endpoint: mean survival time, dose: 400.0 mg/kg/injection, schedule: Q04DX003 (ip), vehicle: saline with Tween-80
[6] = endpoint: mean survival time, dose: 75.0 mg/kg/injection, schedule: Q01DX001 (ip), vehicle: saline
[7] = endpoint: mean survival time, dose: 100.0 mg/kg/injection, schedule: Q01DX001 (ip), vehicle: saline with Tween-80
[8] = endpoint: mean survival time, dose: 100.0 mg/kg/injection, schedule: Q01DX009 (ip), vehicle: saline with Tween-80
[9] = endpoint: mean survival time, dose: 200.0 mg/kg/injection, schedule: Q01DX001 (ip), vehicle: saline with Tween-80
[10] = endpoint: mean survival time, dose: 200.0 mg/kg/injection, schedule: Q01DX009 (ip), vehicle: saline with Tween-80

Measured: T/C

CCCCN1C(=O)c2c(Cl)c(Cl)c(Cl)c(Cl)c2C1=O
inactive: endpoint: mean survival time, dose: 200.0 mg/kg/injection, schedule: Q04DX002 (ip), vehicle: other 94 % of control | endpoint: mean survival time, dose: 400.0 mg/kg/injection, schedule: Q04DX002 (ip), vehicle: other 92 % of control

CC1CCCC/C1=N/O (stereo not given)
inactive: [1] 100 % of control | endpoint: mean survival time, dose: 100.0 mg/kg/injection, schedule: Q01DX009 (ip), vehicle: saline 97 % of control | [2] 92 % of control | endpoint: mean survival time, dose: 200.0 mg/kg/injection, schedule: Q01DX009 (ip), vehicle: saline 105 % of control | endpoint: mean survival time, dose: 400.0 mg/kg/injection, schedule: Q01DX001 (ip), vehicle: saline 91 % of control | endpoint: mean survival time, dose: 400.0 mg/kg/injection, schedule: Q01DX009 (ip), vehicle: saline 97 % of control

C#CC(C)ON1C(=O)c2ccccc2C1=O (stereo not given)
inactive: endpoint: mean survival time, dose: 100.0 mg/kg/injection, schedule: Q01DX009 (ip), vehicle: saline sonified 96 % of control | [3] 115 % of control | endpoint: mean survival time, dose: 200.0 mg/kg/injection, schedule: Q01DX009 (ip), vehicle: saline sonified 97 % of control | [4] 114 % of control | endpoint: mean survival time, dose: 400.0 mg/kg/injection, schedule: Q01DX009 (ip), vehicle: saline sonified 104 % of control | [5] 109 % of control

O=C(O)CNC(=O)c1ccc(NC(=O)CBr)cc1
inactive: endpoint: mean survival time, dose: 50.0 mg/kg/injection, schedule: Q01DX001 (ip), vehicle: saline 104 % of control | [1] 104 % of control | [2] 109 % of control

ClCCN(CCCl)c1ccc(C=Nc2ccc(-n3ccnc3)cc2)c(Cl)c1
inactive: endpoint: mean survival time, dose: 80.0 mg/kg/injection, schedule: Q04DX002 (ip), vehicle: Klucel (hydroxypropylcellulose) (HPC) 95 % of control | endpoint: mean survival time, dose: 160.0 mg/kg/injection, schedule: Q04DX002 (ip), vehicle: Klucel (hydroxypropylcellulose) (HPC) 102 % of control | endpoint: mean survival time, dose: 320.0 mg/kg/injection, schedule: Q04DX002 (ip), vehicle: Klucel (hydroxypropylcellulose) (HPC) 98 % of control

O=C1CC(c2ccccc2)(c2ccccc2)c2cc(-c3ccccc3)c(-c3ccccc3)cc21
inactive: endpoint: mean survival time, dose: 100.0 mg/kg/injection, schedule: Q04DX002 (ip), vehicle: Klucel (hydroxypropylcellulose) (HPC) 106 % of control | endpoint: mean survival time, dose: 200.0 mg/kg/injection, schedule: Q04DX002 (ip), vehicle: Klucel (hydroxypropylcellulose) (HPC) 103 % of control | endpoint: mean survival time, dose: 400.0 mg/kg/injection, schedule: Q04DX002 (ip), vehicle: Klucel (hydroxypropylcellulose) (HPC) 95 % of control

O=CC1(C(O)C2SCCCS2)SCCCS1 (stereo not given)
inactive: endpoint: mean survival time, dose: 100.0 mg/kg/injection, schedule: Q01DX001 (ip), vehicle: other 113 % of control | endpoint: mean survival time, dose: 200.0 mg/kg/injection, schedule: Q01DX001 (ip), vehicle: other 101 % of control | endpoint: mean survival time, dose: 400.0 mg/kg/injection, schedule: Q01DX001 (ip), vehicle: other 97 % of control

CCCCNC(=O)C1CCCC(C(=O)NCCCC)C1 (stereo not given)
inactive: endpoint: mean survival time, dose: 75.0 mg/kg/injection, schedule: Q01DX009 (ip), vehicle: saline 96 % of control | endpoint: mean survival time, dose: 150.0 mg/kg/injection, schedule: Q01DX009 (ip), vehicle: saline 102 % of control | endpoint: mean survival time, dose: 300.0 mg/kg/injection, schedule: Q01DX009 (ip), vehicle: saline 87 % of control

COc1cc([C@@H]2c3cc4c(c(O)c3C[C@H]3COC(=O)[C@@H]32)OCO4)cc(OC)c1O
inactive: endpoint: mean survival time, dose: 0.06 mg/kg/injection, schedule: Q01DX Z (ip), vehicle: saline 100 % of control | endpoint: mean survival time, dose: 0.12 mg/kg/injection, schedule: Q01DX Z (ip), vehicle: saline 100 % of control | endpoint: mean survival time, dose: 0.2 mg/kg/injection, schedule: Q01DX001 (ip), vehicle: carboxymethylcellulose (CMC) 119 % of control | endpoint: mean survival time, dose: 0.25 mg/kg/injection, schedule: Q01DX Z (ip), vehicle: saline 100 % of control | endpoint: mean survival time, dose: 0.5 mg/kg/injection, schedule: Q01DX001 (ip), vehicle: carboxymethylcellulose (CMC) 107 % of control | endpoint: mean survival time, dose: 0.5 mg/kg/injection, schedule: Q01DX Z (ip), vehicle: saline 100 % of control | endpoint: mean survival time, dose: 1.0 mg/kg/injection, schedule: Q01DX001 (ip), vehicle: carboxymethylcellulose (CMC) 107 % of control | endpoint: mean survival time, dose: 2.0 mg/kg/injection, schedule: Q01DX001 (ip), vehicle: carboxymethylcellulose (CMC) 111 % of control | endpoint: mean survival time, dose: 3.6 mg/kg/injection, schedule: Q01DX001 (ip), vehicle: carboxymethylcellulose (CMC) 103 % of control | endpoint: mean survival time, dose: 4.0 mg/kg/injection, schedule: Q01DX001 (ip), vehicle: carboxymethylcellulose (CMC) 119 % of control | endpoint: mean survival time, dose: 5.3 mg/kg/injection, schedule: Q01DX001 (ip), vehicle: carboxymethylcellulose (CMC) 108 % of control | endpoint: mean survival time, dose: 8.0 mg/kg/injection, schedule: Q01DX001 (ip), vehicle: carboxymethylcellulose (CMC) 113 % of control | endpoint: median survival time, dose: 0.06 mg/kg/injection, schedule: Q01DX009 (ip), vehicle: Klucel (hydroxypropylcellulose) (HPC) 100 % of control | endpoint: median survival time, dose: 0.12 mg/kg/injection, schedule: Q01DX009 (ip), vehicle: Klucel (hydroxypropylcellulose) (HPC) 100 % of control | endpoint: median survival time, dose: 0.25 mg/kg/injection, schedule: Q01DX009 (ip), vehicle: Klucel (hydroxypropylcellulose) (HPC) 100 % of control | endpoint: median survival time, dose: 0.5 mg/kg/injection, schedule: Q01DX009 (ip), vehicle: Klucel (hydroxypropylcellulose) (HPC) 111 % of control

C=C(C)C1(Cc2ccccc2)C(=O)NC(=O)NC1=O
inactive: [6] 98 % of control

Cc1cc(C)c(C#[N+][O-])c(C)c1
inactive: endpoint: mean survival time, dose: 25.0 mg/kg/injection, schedule: Q04DX003 (ip), vehicle: saline with Tween-80 93 % of control | endpoint: mean survival time, dose: 50.0 mg/kg/injection, schedule: Q04DX003 (ip), vehicle: saline with Tween-80 98 % of control

NC(=O)c1csc(CCNC(=O)c2ccccc2)n1
inactive: [7] 100 % of control | [8] 100 % of control | [3] 95 % of control | [9] 102 % of control | [10] 100 % of control | [4] 103 % of control | endpoint: mean survival time, dose: 400.0 mg/kg/injection, schedule: Q01DX001 (ip), vehicle: saline with Tween-80 104 % of control | endpoint: mean survival time, dose: 400.0 mg/kg/injection, schedule: Q01DX009 (ip), vehicle: saline with Tween-80 89 % of control | [5] 101 % of control

O=NN(CCCl)C(=O)Nc1cc2c3ccccc3ccc2c2ccccc12
inactive: endpoint: mean survival time, dose: 177.0 mg/kg/injection, schedule: Q01DX009 (ip), vehicle: carboxymethylcellulose (CMC) 123 % of control

CCCC(C)C1(CCC)C(=O)NC(=S)NC1=O (stereo not given)
inactive: [6] 94 % of control | endpoint: mean survival time, dose: 150.0 mg/kg/injection, schedule: Q01DX001 (ip), vehicle: saline 98 % of control | endpoint: mean survival time, dose: 300.0 mg/kg/injection, schedule: Q01DX001 (ip), vehicle: saline 92 % of control

CC12CCC3C4CCC(O)CC4=CCC3C1CCC2=O (stereo not given)
inactive: endpoint: mean survival time, dose: 50.0 mg/kg/injection, schedule: Q01DX001 (ip), vehicle: Klucel (hydroxypropylcellulose) (HPC) 107 % of control | endpoint: mean survival time, dose: 100.0 mg/kg/injection, schedule: Q01DX001 (ip), vehicle: Klucel (hydroxypropylcellulose) (HPC) 104 % of control and 107 % of control | endpoint: mean survival time, dose: 200.0 mg/kg/injection, schedule: Q01DX001 (ip), vehicle: Klucel (hydroxypropylcellulose) (HPC) 92 % of control | endpoint: mean survival time, dose: 400.0 mg/kg/injection, schedule: Q01DX001 (ip), vehicle: Klucel (hydroxypropylcellulose) (HPC) 104 % of control

CC1(C)OC2OC(C(O)CSCc3ccccc3)C(O)C2O1 (stereo not given)
inactive: endpoint: mean survival time, dose: 50.0 mg/kg/injection, schedule: Q01DX009 (ip), vehicle: saline with Tween-80 94 % of control | [7] 92 % of control | [8] 93 % of control | [9] 89 % of control | [10] 97 % of control
